Measurements taken from patent publication US8546370B2, “Compounds and compositions as kinase inhibitors” (IRM LLC, priority 2008, dated 2013).

Experiments:
[1] = molecular target: RET (Homo sapiens (Human), UniProt P07949); experiment: Caliper LabChip mobility-shift kinase assay, single point; type: biochemical; conditions: at a concentration of 5 μM
Procedure: (§1) In addition, compounds of Formula (I) were assessed for their ability to inhibit individual kinases utilizing Caliper Life Sciences' proprietary LabChip™ technology. A partial, non-limiting list of kinases includes: Syk, ZAP70, KDR, FMS, FLT3, c-Kit, RET, TrkA, TrkB, TrkC, IGR-1R, Alk and c-FMS kinases. The off-chip incubation mobility-shift kinase assay uses a microfluidic chip to measure the conversion of a fluorescent peptide substrate to a phosphorylated product. The reaction mixture, from a microtiter plate well, is introduced through a capillary sipper onto the chip, where the nonphosphorylated substrate and phosphorylated product are separated by electrophoresis and detected via laser induced fluorescence. […] The phosphorylated product migrates through the chip faster than the non-phosphorylated substrate, and signals from the two forms of the peptide appear as distinct peaks. Caliper's data analysis software (HTSWA) determines peak heights, from which the ratio of product to the peak sum P/(P+S) and percent (%) conversion is calculated. This value is used to compare compound wells to control wells present on the plate, and thereby determine the % inhibition values for the compound.
(§2) Generally, 12 μL of enzyme buffer containing purified kinase (various amount; various suppliers), 100 mM HEPES, pH 7.5, 1 mM DTT (Calbiochem, 2333153), 10 mM MgCl2 (Sigma, M-1028) or 10 mM MnCl2 (Sigma, M-1787) (assay specific), and 0.002% Brij-35 (Sigma, B4184) are added to each well. Compound and enzyme are allowed to pre-incubate for 15 minutes. 12 μL of peptide/ATP buffer containing 100 mM HEPES, pH 7.5, 1.5 μM fluorescein-labeled peptide (specific to kinase of interest), ATP (at KM apparent, Sigma, A9187), and 0.002% Brij-35 is then added to each well to initiate the reaction. The final concentration of DMSO in the well is 4%. Generally, reactions are incubated for 1 to 1.5 hours at room temperature to obtain adequate conversion of peptide to phosphorylated product in the linear range of the reaction. Reactions are terminated with the addition of 45 μL of Stop Buffer (containing 20 mM EDTA). Plates are then read on the LabChip 3000 using a 12-sipper LabChip. % conversion values and % inhibition values are obtained as described and IC50 curves of compounds are generated using GraphPad Prism Version 4 or 5.01, or XLfit Version 4.3.2. When using GraphPad Prism, a nonlinear curve fit using the sigmoidal dose response—variable slope fit was used to graph IC50 curves and determine IC50 values and hillslopes. When using XLfit, Fit Model 205 (4-Parameter Logistic Model) is used to generate and fit the IC50 curve.

[2] = molecular target: KDR (Homo sapiens (Human), UniProt P35968); experiment: as above; type: biochemical; conditions: at a concentration of 5 μM
Procedure: as §1, §2

[3] = molecular target: FLT3 (Homo sapiens (Human), UniProt P36888); experiment: as above; type: biochemical; conditions: at a concentration of 5 μM
Procedure: as §1, §2

[4] = molecular target: TRKA (Homo sapiens (Human), UniProt P04629); experiment: as above; type: biochemical; conditions: at a concentration of 5 μM
Procedure: as §1, §2

[5] = molecular target: JAK2 (Homo sapiens (Human), UniProt O60674); experiment: as above; type: biochemical; conditions: at a concentration of 5 μM
Procedure: as §1, §2

[6] = molecular target: FMS (Homo sapiens (Human), UniProt P07333); experiment: as above; type: biochemical; conditions: at a concentration of 5 μM
Procedure: as §1, §2

[7] = molecular target: CHK2 (Homo sapiens (Human), UniProt O96017); experiment: as above; type: biochemical; conditions: at a concentration of 5 μM
Procedure: as §1, §2

[8] = molecular target: Abl (Homo sapiens (Human), UniProt P00519); experiment: as above; type: biochemical; conditions: at a concentration of 5 μM
Procedure: as §1, §2

[9] = molecular target: Ba/F3 cells transformed with Tel c-Kit (Homo sapiens, UniProt P10721); conditions: read-out: IC50 in BaF3/Tel-KIT cellular assay
Procedure: (§3) Compounds of the invention are tested for their antiproliferative effect on Ba/F3 cells expressing either Tel-TrkA, Tel-TrkB or Tel-TrkC and an additional panel of 34 selected diverse kinases activated by fusion to the dimerizing partners Bcr or Tel (Abl, AlK, BMX, EphA3, EphB2, FGFR2, FGFR3, FGFR4, FGR, FLT1, FLT3, FLT4, FMS, IGF1R, InsR, JAK1, JAK2, JAK3, KDR, Kit, Lck, Lyn, MER, MET, PDGFRb, RET, RON, Ros-1, Src, Syk, TIE2, TYK2, Tie1, ZAP70). The antiproliferative effect of these compounds on the different cell lines and on the non transformed cells were tested at 12 different concentrations of 3-fold serially diluted compounds in 384 well plates as described above (in media lacking IL3). The IC50 values of the compounds the different cell lines were determined from the dose response curves obtained as describe above.

[10] = molecular target: Ba/F3 cells expressing Tel-FMS (Homo sapiens, UniProt P07333); conditions: read-out: IC50 in BaF3/Tel-FMS cellular assay
Procedure: as §3

[11] = molecular target: Ba/F3 cells transformed with human Tel-TrkA (Homo sapiens, UniProt P04629); conditions: read-out: IC50 in BaF3/Tel-TRKA cellular assay
Procedure: as §3

[12] = molecular target: Ba/F3 cells transformed with Tel-KDR (Homo sapiens, UniProt P35968); conditions: read-out: IC50 in BaF3/Tel-KDR cellular assay
Procedure: (§4) Luciferase expressing Ba/F3 murine pro-B cells are transformed with Tel-Syk, Tel-Zap70 or Tel-KDR. Cells are maintained in RPMI/10% fetal calf serum (RPMI/FCS) supplemented with penicillin 50 μg/mL, streptomycin 50 μg/mL and L-glutamine 200 mM. Untransformed Ba/F3 cells are similarly maintained with the addition of murine recombinant IL3. Cells are dispensed into 384-well format plate at 5000 cell/well in 50 μL of culture medium. Compounds of the invention are dissolved and diluted in dimethylsufoxide (DMSO). Twelve points 1:3 serial dilutions are made into DMSO to create concentrations gradient ranging from 10 mM to 0.05 μM. Cells are added with 50 nL of diluted compounds and incubated for 48 hours in cell culture incubator. Luminiscent signal is measured following the addition of Bright Glo® (Promega) luciferase substrate. IC50 values are calculated by linear regression analysis of the percentage inhibition of each compound at 12 concentrations.
as §3

[13] = molecular target: Ba/F3 cells transformed with Tel-Syk (Homo sapiens, UniProt P43405); conditions: read-out: IC50 in BaF3/Tel-Syk cellular assay
Procedure: as §4, §3

[14] = molecular target: Ba/F3 cells expressing Tel-FLT3 (Homo sapiens, UniProt P36888); conditions: read-out: IC50 in BaF3/Tel-FLT3 cellular assay
Procedure: as §3

Sequence of Ba/F3 cells transformed with Tel c-Kit (P10721 26-976 limits assumed, stated change not applied): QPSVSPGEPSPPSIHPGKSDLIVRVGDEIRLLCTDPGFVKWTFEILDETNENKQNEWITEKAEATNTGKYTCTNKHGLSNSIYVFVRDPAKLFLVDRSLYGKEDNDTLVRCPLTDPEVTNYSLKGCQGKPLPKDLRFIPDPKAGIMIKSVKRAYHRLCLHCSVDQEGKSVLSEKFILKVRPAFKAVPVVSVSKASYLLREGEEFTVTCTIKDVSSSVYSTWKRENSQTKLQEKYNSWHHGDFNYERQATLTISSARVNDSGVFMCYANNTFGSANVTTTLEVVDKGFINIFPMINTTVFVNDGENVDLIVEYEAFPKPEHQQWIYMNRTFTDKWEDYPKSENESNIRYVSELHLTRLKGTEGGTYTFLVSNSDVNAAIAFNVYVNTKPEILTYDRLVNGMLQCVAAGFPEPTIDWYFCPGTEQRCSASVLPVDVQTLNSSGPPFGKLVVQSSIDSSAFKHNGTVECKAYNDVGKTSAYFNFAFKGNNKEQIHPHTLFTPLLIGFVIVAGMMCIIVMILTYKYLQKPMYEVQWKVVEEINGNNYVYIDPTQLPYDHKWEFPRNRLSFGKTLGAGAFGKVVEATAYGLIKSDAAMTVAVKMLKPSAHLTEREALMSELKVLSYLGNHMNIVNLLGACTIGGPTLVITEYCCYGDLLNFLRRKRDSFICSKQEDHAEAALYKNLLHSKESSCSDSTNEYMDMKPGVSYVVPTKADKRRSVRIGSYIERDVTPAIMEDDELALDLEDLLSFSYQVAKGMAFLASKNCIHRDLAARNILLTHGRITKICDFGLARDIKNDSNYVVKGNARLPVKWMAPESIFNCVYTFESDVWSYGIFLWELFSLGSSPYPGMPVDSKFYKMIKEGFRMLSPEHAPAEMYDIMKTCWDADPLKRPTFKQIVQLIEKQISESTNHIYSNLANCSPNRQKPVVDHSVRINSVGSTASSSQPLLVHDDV
Sequence of Ba/F3 cells transformed with Tel-KDR (P35968 20-1356 limits assumed, change not shown): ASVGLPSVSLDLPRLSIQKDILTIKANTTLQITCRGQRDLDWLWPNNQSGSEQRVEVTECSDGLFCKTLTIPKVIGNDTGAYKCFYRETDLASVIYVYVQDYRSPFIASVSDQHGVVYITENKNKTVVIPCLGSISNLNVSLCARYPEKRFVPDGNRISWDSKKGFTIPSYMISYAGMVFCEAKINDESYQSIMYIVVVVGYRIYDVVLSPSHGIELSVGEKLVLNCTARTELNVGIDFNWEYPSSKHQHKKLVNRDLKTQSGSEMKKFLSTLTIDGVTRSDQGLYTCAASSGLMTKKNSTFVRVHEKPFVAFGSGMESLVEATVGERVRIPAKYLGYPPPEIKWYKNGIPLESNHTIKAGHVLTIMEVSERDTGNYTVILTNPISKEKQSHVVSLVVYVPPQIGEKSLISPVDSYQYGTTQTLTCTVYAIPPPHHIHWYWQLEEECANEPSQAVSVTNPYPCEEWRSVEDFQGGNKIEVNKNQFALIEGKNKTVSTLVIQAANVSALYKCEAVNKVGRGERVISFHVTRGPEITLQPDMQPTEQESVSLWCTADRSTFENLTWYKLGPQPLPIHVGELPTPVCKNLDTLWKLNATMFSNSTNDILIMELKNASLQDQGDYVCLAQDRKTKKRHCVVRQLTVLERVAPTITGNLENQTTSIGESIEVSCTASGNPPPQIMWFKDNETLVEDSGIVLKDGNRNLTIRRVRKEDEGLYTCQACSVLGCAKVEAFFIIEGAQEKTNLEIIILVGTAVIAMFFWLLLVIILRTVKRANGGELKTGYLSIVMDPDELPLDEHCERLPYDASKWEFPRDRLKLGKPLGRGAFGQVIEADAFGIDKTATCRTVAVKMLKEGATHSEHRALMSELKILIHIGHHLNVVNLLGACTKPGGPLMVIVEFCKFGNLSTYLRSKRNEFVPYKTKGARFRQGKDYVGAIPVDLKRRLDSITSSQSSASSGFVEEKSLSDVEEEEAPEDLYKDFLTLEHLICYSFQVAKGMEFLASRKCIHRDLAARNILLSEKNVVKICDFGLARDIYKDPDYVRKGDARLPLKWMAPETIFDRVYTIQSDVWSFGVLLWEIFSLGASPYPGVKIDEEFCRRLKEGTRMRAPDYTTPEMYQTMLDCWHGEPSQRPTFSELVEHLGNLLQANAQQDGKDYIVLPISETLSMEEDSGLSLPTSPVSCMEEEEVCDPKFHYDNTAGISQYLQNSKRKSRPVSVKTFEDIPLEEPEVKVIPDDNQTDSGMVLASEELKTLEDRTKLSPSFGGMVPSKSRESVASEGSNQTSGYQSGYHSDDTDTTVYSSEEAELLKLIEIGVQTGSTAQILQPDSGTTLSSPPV
Sequence of Ba/F3 cells expressing Tel-FMS (P07333 20-972 limits assumed, change not shown): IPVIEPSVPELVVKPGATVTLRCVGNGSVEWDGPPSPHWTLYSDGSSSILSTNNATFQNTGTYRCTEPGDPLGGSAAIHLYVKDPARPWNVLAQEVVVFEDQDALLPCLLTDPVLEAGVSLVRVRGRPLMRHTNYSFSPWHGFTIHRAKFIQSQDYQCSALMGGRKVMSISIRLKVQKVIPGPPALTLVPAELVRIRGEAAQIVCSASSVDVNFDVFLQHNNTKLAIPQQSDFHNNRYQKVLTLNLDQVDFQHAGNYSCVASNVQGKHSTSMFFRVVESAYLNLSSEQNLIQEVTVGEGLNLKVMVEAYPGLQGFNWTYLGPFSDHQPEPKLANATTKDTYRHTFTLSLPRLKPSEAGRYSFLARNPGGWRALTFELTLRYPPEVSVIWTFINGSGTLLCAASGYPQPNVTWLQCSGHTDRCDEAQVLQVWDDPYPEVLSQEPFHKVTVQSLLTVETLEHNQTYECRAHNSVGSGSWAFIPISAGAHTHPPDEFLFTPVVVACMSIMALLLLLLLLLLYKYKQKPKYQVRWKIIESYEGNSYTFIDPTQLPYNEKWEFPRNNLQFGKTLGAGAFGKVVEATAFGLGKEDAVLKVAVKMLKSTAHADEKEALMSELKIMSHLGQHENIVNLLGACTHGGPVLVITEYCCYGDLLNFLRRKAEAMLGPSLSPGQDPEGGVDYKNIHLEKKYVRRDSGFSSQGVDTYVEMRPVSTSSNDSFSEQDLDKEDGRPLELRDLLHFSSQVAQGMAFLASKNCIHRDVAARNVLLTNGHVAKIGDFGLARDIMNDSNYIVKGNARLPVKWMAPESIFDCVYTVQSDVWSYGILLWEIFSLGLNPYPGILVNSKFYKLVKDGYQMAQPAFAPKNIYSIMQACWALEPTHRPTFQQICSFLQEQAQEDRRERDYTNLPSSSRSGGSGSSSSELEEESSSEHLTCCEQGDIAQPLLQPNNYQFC
Sequence of Ba/F3 cells transformed with human Tel-TrkA (P04629 33-796 limits assumed, change not shown): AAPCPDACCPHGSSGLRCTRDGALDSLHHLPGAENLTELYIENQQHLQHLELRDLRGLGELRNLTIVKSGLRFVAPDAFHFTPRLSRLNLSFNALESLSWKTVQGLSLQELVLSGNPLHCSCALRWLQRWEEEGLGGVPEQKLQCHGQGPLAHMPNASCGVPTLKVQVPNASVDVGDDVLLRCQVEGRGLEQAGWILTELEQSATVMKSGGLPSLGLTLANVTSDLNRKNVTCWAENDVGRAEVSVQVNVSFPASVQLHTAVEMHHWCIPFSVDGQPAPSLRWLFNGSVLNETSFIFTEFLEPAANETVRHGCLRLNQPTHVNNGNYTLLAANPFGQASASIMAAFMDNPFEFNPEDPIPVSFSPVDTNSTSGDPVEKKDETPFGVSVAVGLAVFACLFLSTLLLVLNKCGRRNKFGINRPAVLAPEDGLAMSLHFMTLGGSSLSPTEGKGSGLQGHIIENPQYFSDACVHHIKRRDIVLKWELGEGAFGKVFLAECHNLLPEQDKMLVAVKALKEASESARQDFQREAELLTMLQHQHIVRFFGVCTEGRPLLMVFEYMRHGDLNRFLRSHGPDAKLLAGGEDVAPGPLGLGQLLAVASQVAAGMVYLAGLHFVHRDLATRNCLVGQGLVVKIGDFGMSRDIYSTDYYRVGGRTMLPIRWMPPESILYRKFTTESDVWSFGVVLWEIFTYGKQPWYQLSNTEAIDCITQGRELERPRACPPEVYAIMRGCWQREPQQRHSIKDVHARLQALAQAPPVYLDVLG
Sequence of RET (P07949 29-1114, species assumed): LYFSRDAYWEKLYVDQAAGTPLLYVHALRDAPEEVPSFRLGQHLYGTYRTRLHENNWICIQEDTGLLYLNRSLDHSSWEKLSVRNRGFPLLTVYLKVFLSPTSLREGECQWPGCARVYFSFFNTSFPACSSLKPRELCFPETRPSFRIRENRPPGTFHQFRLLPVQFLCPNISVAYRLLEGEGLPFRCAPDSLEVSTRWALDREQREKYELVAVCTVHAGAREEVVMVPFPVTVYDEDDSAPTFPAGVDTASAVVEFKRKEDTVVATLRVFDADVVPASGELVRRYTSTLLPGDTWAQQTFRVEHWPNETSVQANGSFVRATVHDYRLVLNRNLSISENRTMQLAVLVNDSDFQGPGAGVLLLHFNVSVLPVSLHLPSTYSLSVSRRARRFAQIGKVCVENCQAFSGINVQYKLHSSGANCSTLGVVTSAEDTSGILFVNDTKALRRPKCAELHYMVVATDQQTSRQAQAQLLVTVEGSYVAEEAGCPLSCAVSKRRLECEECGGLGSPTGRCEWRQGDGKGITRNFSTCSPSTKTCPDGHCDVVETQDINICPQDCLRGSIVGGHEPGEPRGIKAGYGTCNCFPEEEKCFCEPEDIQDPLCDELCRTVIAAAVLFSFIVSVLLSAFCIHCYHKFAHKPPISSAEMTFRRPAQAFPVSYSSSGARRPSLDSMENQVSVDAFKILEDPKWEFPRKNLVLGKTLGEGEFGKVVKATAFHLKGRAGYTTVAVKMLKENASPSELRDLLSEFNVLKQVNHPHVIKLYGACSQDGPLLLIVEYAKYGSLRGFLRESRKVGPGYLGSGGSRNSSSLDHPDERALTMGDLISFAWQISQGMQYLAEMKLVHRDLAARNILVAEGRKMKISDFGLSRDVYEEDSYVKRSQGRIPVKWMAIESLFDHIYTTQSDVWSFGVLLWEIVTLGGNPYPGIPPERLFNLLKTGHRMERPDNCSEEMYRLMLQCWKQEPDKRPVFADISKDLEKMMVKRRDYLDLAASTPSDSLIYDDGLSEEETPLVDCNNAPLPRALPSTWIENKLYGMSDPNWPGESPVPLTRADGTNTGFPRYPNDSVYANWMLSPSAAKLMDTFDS

SMILES | inhibition at 5 µM [1] [%] | inhibition at 5 µM [2] [%] | inhibition at 5 µM [3] [%] | inhibition at 5 µM [4] [%] | inhibition at 5 µM [5] [%] | inhibition at 5 µM [6] [%] | inhibition at 5 µM [7] [%] | inhibition at 5 µM [8] [%] | IC50 [9] [nM] | IC50 [10] [nM] | IC50 [11] [nM] | IC50 [12] [nM] | IC50 [13] [nM] | IC50 [14] [nM]
O=c1[nH]ccc2cc(-c3ccccc3)nc(Nc3ccc(N4CCOCC4)cc3)c12 [No 11, 8-(4-morpholinophenylamino)-6-phenyl-2,7-naphthyridin-1(2H)-one] | 99 | 96 | 100 | 74 | 96 | 84 | 94 | 100 | 20 | 20 | 70 | 270 | 150 | 
CCN1CCN(c2cc3cc[nH]c(=O)c3c(Nc3ccc(N4CCOCC4)cc3)n2)CC1 [No 83, 8-(4-morpholinophenylamino)-6-(4-ethylpiperazin-1-yl)-2,7-naphthyridin-1(2H)-one] |  |  |  |  |  |  |  |  | 1220 | 500 | 490 | 5000 | 120 | 530
